Laboratory results taken from patent publication EP1203584A1 (priority 2000, dated 2002).

Experiments:
Format in all cases: in vivo, Male Wistar rats
[1] = test system: immunoreactivity of the neuronal acetylcholine in the neurones of the magnocellular nucleus basalis (MNB) and in the corpus striatum; assay: Immunoreactivity of neuronal acetylcholine in MNB and corpus striatum neurones
[2] = test system: levels of acetylcholine in the cerebral cortex (frontal area), in the hippocampus and in the corpus striatum; assay: Levels of acetylcholine in rat brain areas after 1 week of treatment
[3] = target: T1, acetylcholinesterase (AChE) (Rattus norvegicus, UniProt P37136); assay: Activity of acetylcholinesterase in treated rats; details: choline alfoscerate alone, 150 mg/kg
T1 construct: Male Wistar rats were divided into 5 groups; from tissue; host or cells: Male Wistar rats
T1 sequence (P37136 32-614): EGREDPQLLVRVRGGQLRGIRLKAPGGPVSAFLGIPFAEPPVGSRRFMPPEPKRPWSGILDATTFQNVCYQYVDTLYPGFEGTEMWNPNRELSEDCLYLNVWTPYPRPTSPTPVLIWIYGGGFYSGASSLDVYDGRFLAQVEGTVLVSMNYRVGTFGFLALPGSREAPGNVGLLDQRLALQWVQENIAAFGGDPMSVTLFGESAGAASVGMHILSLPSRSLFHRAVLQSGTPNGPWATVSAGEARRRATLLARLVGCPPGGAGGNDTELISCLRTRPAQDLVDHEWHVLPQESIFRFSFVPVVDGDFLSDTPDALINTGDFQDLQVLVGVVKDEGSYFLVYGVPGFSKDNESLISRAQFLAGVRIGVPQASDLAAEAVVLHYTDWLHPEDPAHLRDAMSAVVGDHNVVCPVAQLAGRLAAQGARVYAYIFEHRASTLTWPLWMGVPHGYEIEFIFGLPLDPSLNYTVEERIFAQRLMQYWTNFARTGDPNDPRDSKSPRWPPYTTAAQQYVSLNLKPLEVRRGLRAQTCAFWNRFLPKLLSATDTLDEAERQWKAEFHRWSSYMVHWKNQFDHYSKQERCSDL

Structure (SMILES)	immunoreactivity of the acetylcholine ([1]; rat, in vivo, 2.5 mg/kg)	release of acetylcholine ([2]; 150 mg/kg choline alfoscerate, hippocampus and corpus striatum, reason for the choice of dose)	increase in the levels of acetylcholine, compared with rivastigmine ([2]; choline alfoscerate alone versus rivastigmine 2.5 mg/kg, frontal cerebral cortex, hippocampus, corpus striatum)	increased the levels of acetylcholine ([2]; choline alfoscerate alone, 150 mg/kg intraperitoneal, 1 week)	effect on the activity of the AChE [3]	immunoreactivity of the acetylcholine ([1]; choline alfoscerate alone, 150 mg/kg, MNB neurones and interneurones of the corpus striatum, more marked in the MNB)
CCN(C)C(=O)Oc1cccc([C@H](C)N(C)C)c1 [rivastigmine]	increased in a similar fashion	–	–	–	–	–
C[N+](C)(C)CCOP(=O)([O-])OC[C@H](O)CO [choline alfoscerate]	–	significantly increases	to the same extent as the dosage of the AchE inhibitor, rivastigmine	approximately 20%	did not show any effect	increased in a similar fashion
